Literature values as cited in patent US6288033A, “Treatment of hepatitis B infection with thymosin alpha 1 in combination with lamivudine or in combination with lamivudine and famciclovir” (priority 1998, dated 2001).
Like-named read-outs stand apart in the source and are kept apart here. No end group written: not given here.

Key:
[1] = tested on: duck hepatitis B viral replication; details: for HBV DNA and DNA polymerase levels: within two days of start, maintained during 21 days; for time viral replication remained suppressed after dosing had stopped: then levels returned to pre-treatment
HBV [2] = details: 10 day course, 250 mg or 500 mg tid
[3] = not given; remark: listed apart in the source
HBV [4] = tested on: HBV
[5] = tested on: HBV transfected cell lines
HBV [6] = details: chronically infected chimpanzees
HBV [7] = details: duck model
[8] = up to 2 years, HIV-infected patients
HBV [9] = details: 1 microgram/ml
[10] = tested on: woodchuck hepatitis virus (WHV)
HBV [11] = tested on: HBV; remark: listed apart in the source
anti-HBs = details: previously non-reactive hemodialysis patients, after Heptavax-B vaccination
HBV [12] = tested on: HBV; remark: listed apart in the source
[13] = North America and European patients

In the case of `CC(=O)OCC(CCn1cnc2cnc(N)nc21)COC(C)=O` [famciclovir, diacetyl ester of 6-deoxypenciclovir], the “penciclovir concentration in the blood, Cmax” value (after a 500 mg oral famciclovir dose) is listed as 21.73 microgram/ml, the “drug-related adverse effects on clinical laboratory values, blood pressure, heart rates or ECG” value (single and repeat doses up to 1000 mg three times daily for six days) is listed as “no evidence of drug-related adverse effects” and the absorption (volunteers, oral) is listed as “well absorbed”. For the same molecule, the “HBV DNA and DNA polymerase levels” value ([1]; oral 5 and 25 mg/kg twice a day) was “undetectable levels”, the “time viral replication remained suppressed after dosing had stopped” value [1] was “at least two days” and the “evaluable patients with a greater than 90% fall in HBV DNA levels” value (HBV [2]) was 6 of 11. For the same molecule, the “frequency of adverse experiences and laboratory abnormalities versus placebo” value ([3]; 11 double-blind and 2 open trials, more than 3000 patients) was “similar”, the “most common adverse experiences” value ([3]; human, in vivo) was “headache, nausea and diarrhea” and the tolerability (HBV [4]; adverse events profile similar to placebo) was “well tolerated”. For the same molecule, the “HBV DNA and ALT levels” value (HBV [4]; up to 500 mg three times a day for 16 weeks, preliminary data) was “significant reduction”.

In the case of `Nc1ccn([C@@H]2CS[C@H](CO)O2)c(=O)n1` [lamivudine, 2'3'-dideoxy-3'thiacytidine], the antiviral activity [5] is given as “has been shown”, the antiviral activity (HBV [6]) is given as “has been shown” and the antiviral activity (HBV [7]) is given as “has been shown”. For the same molecule, the toxicity [8] was “without significant toxicity”.

In the case of `Nc1nc2c(ncn2CCC(CO)CO)c(=O)[nH]1` [penciclovir], the “penciclovir concentration in the blood, Cmax” value (after a 5 mg/kg oral dose of penciclovir alone) is listed as “approximately 0.14 microgram/ml”, the “HBV DNA and DNA polymerase levels” value ([1]; oral 20 and 100 mg/kg twice a day) is listed as “undetectable levels” and the “time viral replication remained suppressed after dosing had stopped” value [1] is listed as “at least two days”. The “reduction in HBV DNA” value (HBV [9]; day 6) was 50% and the “reduction in HBV DNA” value (HBV [9]; day 9) was 90%.

For “Thymosin alpha 1 (Ac-SDAAVDTSSEITTKDLKEKKEVVEEAEN; UniProt P06454 2-29, looked up) [Tα1]”, the “treated animals with undetectable WHV DNA levels” value ([10]; 10 μg/Kg s.c. twice weekly, 28 weeks, 6 treated animals, end of treatment) is listed as 4 animals, the “decrease in liver levels of WHV DNA replication intermediates” value ([10]; liver biopsy, the 4 animals with undetectable serum WHV DNA) is listed as 50 to 300 fold and the “change in liver levels of WHV DNA replication intermediates” value ([10]; liver biopsy, the other 2 animals) is listed as “only a small change from the pretreatment levels”. For the same molecule, the “depression of WHV DNA levels” value ([10]; remaining 2 treated animals, end of treatment) was 100 fold, the serum aminotransferase levels (HBV [11]; conclusion of the study (1 year), 12 patients received TF5 or Tα1 twice weekly for six months) was “improved significantly” and the “peripheral blood lymphocyte, CD3 and CD4 counts, in vitro production of interferon-gamma over initial values” (HBV [11]; in responders to therapy) was “significant improvements”. For the same molecule, the side effects (HBV [11]; in vivo) was “No side effects were observed”, the “patients who cleared serum HBV DNA, number” value (HBV [11]; of 12 treated patients, 1 year) was “Nine” and the “patients who cleared serum HBV DNA” value (HBV [11]; of 12 treated patients, 1 year, p<0.004 vs placebo) was 75%. For the same molecule, the “responders with sustained remission (normal ALT, negative serum HBV DNA by PCR and HBeAg)” value (HBV [11]; of the responders) was “About 78%”, the “safety and efficacy in clearing HBV DNA” value (HBV [11]; phase II studies, 1.45 to 1.75 mg (adults) per twice-weekly injection) was “safe and effective in clearing HBV DNA from the blood” and the “in vivo production of anti-HBs” value (anti-HBs) was “enhance”. For the same molecule, the “CR (complete response), number of patients” value (HBV [12]; 1.6 mg S.C. 2×/week, 6 months, n=49) was 7 patients, the “CR (%)” value (HBV [12]; 1.6 mg S.C. 2×/week, 6 months, n=49, p 0.084) was 14% and the “patients with sustained loss of HBV DNA with negative HBeAg, number” value (HBV [12]; during the 1yr study or post study follow up) was 12 patients. For the same molecule, the “patients with sustained loss of HBV DNA with negative HBeAg” value (HBV [12]; during the 1yr study or post study follow up, p<0.11 vs placebo) was 25%, the “DR (%)” value (HBV [12]; n=49) was 10% and the “DR (delayed response), number of patients” value (HBV [12]; n=49) was 5 patients. For the same molecule, the “IR (%)” value (HBV [12]; n=49) was 0% and the “IR (incomplete response), number of patients” value (HBV [12]; n=49) was 0 patients.

For interferon-alpha, the “of the HBeAg-clearing patients, clear HBsAg” value (hepatitis B virus (HBV); Asian patients) is given as “approximately 10%”, the “patients who clear HBeAg” value (hepatitis B virus (HBV); Asian patients) is given as 15-20% and the “of the HBeAg-clearing patients, ultimately cleared HBsAg” value (hepatitis B virus (HBV); [13]) is given as 25-65%. The “sustained clearance of hepatitis B e antigen (HBeAg), patients” value (hepatitis B virus (HBV); [13]) was 30-40%.
